Source: ChEMBL document CHEMBL1201862, “PubChem BioAssay data set” (2004)
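Results reflect a 48-hour exposure of cells in 96-well plates to compound at five concentrations. At the GI50, growth is halved.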 Activity calls are given as the source filed them. Rule as the data show it: active = GI50 up to about 1.1 µM and inactive = higher.

What was measured:
Assay in all cases: DTP human tumour cell line panel, 48 h
MDA-MB-435 = test system: MDA-MB-435
SF-268 = test system: SF-268
T47D = test system: T47D
SN12C = test system: SN12C
IGROV-1 = test system: IGROV-1
SF-539 = test system: SF-539
Hs-578T = test system: Hs-578T
CAKI-1 = test system: CAKI-1
SR = test system: SR
KM12 = test system: KM12
UACC-62 = test system: UACC-62
EKVX = test system: EKVX
HOP-92 = test system: HOP-92
SK-OV-3 = test system: SK-OV-3
U-251 = test system: U-251
RPMI-8226 = test system: RPMI-8226
CCRF-CEM = test system: CCRF-CEM
A549 = test system: A549
RXF 393 = test system: RXF 393
PC-3 = test system: PC-3

Row | SMILES | GI50 (MDA-MB-435) | GI50 (SF-268) | GI50 (T47D) | GI50 (SN12C) | GI50 (IGROV-1) | GI50 (SF-539) | GI50 (Hs-578T) | GI50 (CAKI-1) | GI50 (SR) | GI50 (KM12) | GI50 (UACC-62) | GI50 (EKVX) | GI50 (HOP-92) | GI50 (SK-OV-3) | GI50 (U-251) | GI50 (RPMI-8226) | GI50 (CCRF-CEM) | GI50 (A549) | GI50 (RXF 393) | GI50 (PC-3)
1 | C=CC[C@@H]1C=C[C@@H](C(=O)OC)n2c(=O)n(-c3ccccc3)c(=O)n21 | > 100 µM (inactive) | > 100 µM (inactive) | > 100 µM (inactive) | > 100 µM (inactive) | > 100 µM (inactive) | > 100 µM (inactive) | > 100 µM (inactive) | > 100 µM (inactive) | > 100 µM (inactive) | > 100 µM (inactive) | > 100 µM (inactive) | > 100 µM (inactive) | > 100 µM (inactive) | > 100 µM (inactive) | > 100 µM (inactive) | > 100 µM (inactive) | > 100 µM (inactive) | – | – | –
2 | CCOC(=O)Cc1nc2nn(Cc3ccccc3)cc2c(=O)[nH]1 | > 100 µM (inactive) | > 100 µM (inactive) | > 100 µM (inactive) | > 100 µM (inactive) | > 100 µM (inactive) | > 100 µM (inactive) | – | > 100 µM (inactive) | – | > 100 µM (inactive) | > 100 µM (inactive) | > 100 µM (inactive) | – | > 100 µM (inactive) | > 100 µM (inactive) | > 100 µM (inactive) | > 100 µM (inactive) | > 100 µM (inactive) | > 100 µM (inactive) | –
3 | Cc1c2c(c(O)c3c(O)cccc13)C(=O)C1(O)C(=O)C(C(=O)NCNc3ccc(C(N)=O)cn3)=C(O)C(N(C)C)C1C2 (centres undefined) | 3.69 µM (inactive) | 3.61 µM (inactive) | 5.61 µM (inactive) | 4.78 µM (inactive) | 1.82 µM (inactive) | 2.52 µM (inactive) | – | 5.36 µM (inactive) | 3.05 µM (inactive) | 3.53 µM (inactive) | 3.39 µM (inactive) | 4.33 µM (inactive) | 2.01 µM (inactive) | 3.1 µM (inactive) | 2.6 µM (inactive) | 1.83 µM (inactive) | 2.94 µM (inactive) | 2.96 µM (inactive) | 2.89 µM (inactive) | 3.68 µM (inactive)
4 | Cc1ccc(S(=O)(=O)Oc2nc3nc4ccccc4nc3nc2OS(=O)(=O)c2ccc(C)cc2)cc1 | > 100 µM (inactive) | > 100 µM (inactive) | – | > 100 µM (inactive) | > 100 µM (inactive) | > 100 µM (inactive) | > 100 µM (inactive) | > 100 µM (inactive) | – | > 100 µM (inactive) | > 100 µM (inactive) | 13.6 µM (inactive) | – | > 100 µM (inactive) | > 100 µM (inactive) | > 100 µM (inactive) | 5.28 µM (inactive) | > 100 µM (inactive) | > 100 µM (inactive) | > 100 µM (inactive)
5 | CCN(CC)CCCN(c1cc(OC)cc2nccnc12)S(=O)(=O)c1ccc(C)cc1 | – | > 100 µM (inactive) | – | > 100 µM (inactive) | > 100 µM (inactive) | > 100 µM (inactive) | – | > 100 µM (inactive) | > 100 µM (inactive) | > 100 µM (inactive) | > 100 µM (inactive) | > 100 µM (inactive) | > 100 µM (inactive) | > 100 µM (inactive) | > 100 µM (inactive) | > 100 µM (inactive) | 99.1 µM (inactive) | > 100 µM (inactive) | 41.1 µM (inactive) | –
6 | CN(C)c1ccc(C2=C([O-])c3cc(-[n+]4ccccc4)ccc3C2=O)cc1 | > 100 µM (inactive) | > 100 µM (inactive) | – | > 100 µM (inactive) | > 100 µM (inactive) | > 100 µM (inactive) | > 100 µM (inactive) | > 100 µM (inactive) | > 100 µM (inactive) | > 100 µM (inactive) | – | > 100 µM (inactive) | > 100 µM (inactive) | – | > 100 µM (inactive) | > 100 µM (inactive) | > 100 µM (inactive) | > 100 µM (inactive) | > 100 µM (inactive) | > 100 µM (inactive)
7 | CC(=O)Nc1ccc(N2C(=O)/C(=C\c3cccc(Oc4ccccc4)c3)SC2c2ccccc2)cc1 (centres undefined) | 32.5 µM (inactive) | 50.6 µM (inactive) | 54.1 µM (inactive) | 26.8 µM (inactive) | – | 19.3 µM (inactive) | 12.7 µM (inactive) | 66.4 µM (inactive) | 21 µM (inactive) | 24.4 µM (inactive) | 22.4 µM (inactive) | 42.7 µM (inactive) | 16.6 µM (inactive) | 16.1 µM (inactive) | 14.7 µM (inactive) | 24.7 µM (inactive) | 17.3 µM (inactive) | 27.1 µM (inactive) | 30.4 µM (inactive) | –
8 | CC(C)(Br)C(Br)CC/C(=C/CBr)CBr.CC(C)(Br)C(Br)CC/C(=C\CBr)CBr (centres undefined) | 3.69 µM (inactive) | 2.21 µM (inactive) | 2.76 µM (inactive) | 2 µM (inactive) | 3.08 µM (inactive) | 4.66 µM (inactive) | 19.1 µM (inactive) | 9.91 µM (inactive) | 0.783 µM (active) | 4.16 µM (inactive) | 2.05 µM (inactive) | 25.3 µM (inactive) | 4.33 µM (inactive) | 21.4 µM (inactive) | 3.05 µM (inactive) | 1.47 µM (inactive) | 0.91 µM (active) | 13.9 µM (inactive) | 2.22 µM (inactive) | –
9 | Nc1c(-c2ccc(Cl)c(Cl)c2)c2ccc([N+](=O)[O-])cc2c(=O)n1-c1nc2ccccc2s1 | 0.582 µM (active) | 0.531 µM (active) | 0.386 µM (active) | 0.335 µM (active) | 0.796 µM (active) | 2.65 µM (inactive) | – | 0.719 µM (active) | 0.417 µM (active) | 0.64 µM (active) | 0.419 µM (active) | 0.446 µM (active) | 0.296 µM (active) | 0.689 µM (active) | 0.425 µM (active) | 0.391 µM (active) | 0.223 µM (active) | 0.407 µM (active) | 0.689 µM (active) | 0.311 µM (active)
10 | CO/C(=N\N=C\c1ccccc1F)c1ccncc1 | > 10 µM (inactive) | > 10 µM (inactive) | > 10 µM (inactive) | > 10 µM (inactive) | – | – | – | > 10 µM (inactive) | > 10 µM (inactive) | > 10 µM (inactive) | – | > 10 µM (inactive) | > 10 µM (inactive) | – | > 10 µM (inactive) | > 10 µM (inactive) | > 10 µM (inactive) | > 10 µM (inactive) | > 10 µM (inactive) | > 10 µM (inactive)
11 | CNC(=S)N1CCN(C(C)=O)C1=S | 22.2 µM (inactive) | 54.8 µM (inactive) | 19.5 µM (inactive) | 57.7 µM (inactive) | 44.9 µM (inactive) | 20.4 µM (inactive) | 23.6 µM (inactive) | 50 µM (inactive) | 23.7 µM (inactive) | 56.9 µM (inactive) | 43.7 µM (inactive) | 25.1 µM (inactive) | 82.2 µM (inactive) | 66.8 µM (inactive) | 4.02 µM (inactive) | – | 46.5 µM (inactive) | 38.8 µM (inactive) | – | –
12 | Cn1c2ccccc2c(=O)c2c(O)cc3c(c21)C=CC1(CCCC1)O3 | > 100 µM (inactive) | > 100 µM (inactive) | – | > 100 µM (inactive) | 61.7 µM (inactive) | 50.5 µM (inactive) | 95.7 µM (inactive) | > 100 µM (inactive) | 37.3 µM (inactive) | > 100 µM (inactive) | > 100 µM (inactive) | 20.8 µM (inactive) | 25.7 µM (inactive) | > 100 µM (inactive) | > 100 µM (inactive) | > 100 µM (inactive) | > 100 µM (inactive) | > 100 µM (inactive) | 22.7 µM (inactive) | > 100 µM (inactive)
13 | O=C1N=C(S)NNC12c1ccccc1-c1ccccc12 | – | > 10 µM (inactive) | 1.98 µM (inactive) | > 10 µM (inactive) | > 10 µM (inactive) | > 10 µM (inactive) | 6.18 µM (inactive) | > 10 µM (inactive) | > 10 µM (inactive) | > 10 µM (inactive) | > 10 µM (inactive) | 2.99 µM (inactive) | > 10 µM (inactive) | > 10 µM (inactive) | > 10 µM (inactive) | > 10 µM (inactive) | > 10 µM (inactive) | > 10 µM (inactive) | – | –
14 | COc1cc2c(c(OC)c1OC)C(=O)c1c(O)cc(C)c(OC)c1C2=O | 91.8 µM (inactive) | > 100 µM (inactive) | – | > 100 µM (inactive) | > 100 µM (inactive) | 75.5 µM (inactive) | 15.6 µM (inactive) | 44.6 µM (inactive) | > 100 µM (inactive) | > 100 µM (inactive) | – | 65 µM (inactive) | > 100 µM (inactive) | – | 94 µM (inactive) | > 100 µM (inactive) | > 10 µM (inactive) | 77.3 µM (inactive) | – | > 100 µM (inactive)
15 | NNC(=O)C(=O)NN=C(C(Cl)(Cl)CO)C(Cl)(Cl)CO | – | 36.4 µM (inactive) | – | > 100 µM (inactive) | > 100 µM (inactive) | 25.2 µM (inactive) | – | 26.9 µM (inactive) | 18.6 µM (inactive) | 44.1 µM (inactive) | 65.5 µM (inactive) | 40.7 µM (inactive) | 33.4 µM (inactive) | > 100 µM (inactive) | 19.5 µM (inactive) | 27.4 µM (inactive) | 19.1 µM (inactive) | > 100 µM (inactive) | 21.9 µM (inactive) | –
16 | FC(F)(F)c1nc(-c2ccccc2)oc1Sc1nnc(Sc2oc(-c3ccccc3)nc2C(F)(F)F)s1 | – | 58.9 µM (inactive) | – | 39.4 µM (inactive) | 24.2 µM (inactive) | > 69.8 µM (inactive) | – | 30.1 µM (inactive) | 18.5 µM (inactive) | > 100 µM (inactive) | 35.2 µM (inactive) | > 47.2 µM (inactive) | 29.4 µM (inactive) | > 100 µM (inactive) | > 42.5 µM (inactive) | 30.5 µM (inactive) | 8.97 µM (inactive) | > 100 µM (inactive) | 21.1 µM (inactive) | –
